Holding throughout (assay type): functional, cell-based
A short description of assay [1]: Cytotoxicity against human Lu cells assessed as inhibition of cell growth after 3 days by MTT assay. Particulars: 72 h. In general terms: Tetrazolium assays rely on reduction of a dye to a coloured formazan, in cell work by metabolically active cells.
A further assay relates to MCF7. The experiment in a line: Cytotoxicity against human MCF7 cells assessed as inhibition of cell growth after 3 days by MTT assay. Conditions: MCF7, 72 h.
Another assay deals with KB. The experiment in a line: Cytotoxicity against human KB cells assessed as inhibition of cell growth after 3 days by MTT assay. Conditions: 72 h.
Another assay relates to HepG2. The experiment in a line: Cytotoxicity against human HepG2 cells assessed as inhibition of cell growth after 3 days by MTT assay. Particulars: HepG2, 72 h.

What is called IC50 is the midpoint of a concentration-inhibition curve. Consider `CCOC(=O)/C(C)=C/[C@@H](NC(=O)[C@@H](NC(=O)/C(=C/c1ccc2ccccc2c1)NC(C)=O)C(C)(C)C)C(C)C`, for which the IC50 in assay [1] is above 269 nM; with MCF7, 42.3 nM; in the assay on KB, 30.8 nM; in the assay on HepG2, 39.7 nM.
On to `CCOC(=O)/C(C)=C/[C@@H](NC(=O)[C@@H](NC(=O)/C(=C/c1ccco1)NC(C)=O)C(C)(C)C)C(C)C`, for which the IC50 in assay [1] was above 269 nM; with MCF7 it was above 269 nM; with KB, 160 nM; in the assay on HepG2, 214 nM.
Turning to `CCOC(=O)/C(C)=C/[C@@H](NC(=O)[C@@H](NC(=O)/C(=C/c1ccoc1)NC(C)=O)C(C)(C)C)C(C)C`, the IC50 was above 269 nM in assay [1], above 269 nM with MCF7, 86.2 nM in the assay with KB and 67.3 nM with HepG2.
As for `CCOC(=O)/C(C)=C/[C@@H](NC(=O)[C@@H](NC(=O)/C(=C/c1ccsc1)NC(C)=O)C(C)(C)C)C(C)C`, the IC50 was above 269 nM in assay [1], 203 nM in the assay with MCF7, 107 nM with KB and 57.6 nM with HepG2.
With `CCOC(=O)/C(C)=C/[C@@H](NC(=O)[C@@H](NC(=O)/C(=C/c1cccc(OC)c1)NC(C)=O)C(C)(C)C)C(C)C`, the IC50 in assay [1] stood at 228 nM; in the assay on MCF7, 62 nM; in the assay on KB, 77.4 nM; in the assay on HepG2, 47.7 nM.
As to `CCOC(=O)/C(C)=C/[C@@H](NC(=O)[C@@H](NC(=O)/C(=C/c1ccc(OC)cc1)NC(C)=O)C(C)(C)C)C(C)C`, the IC50 (in assay [1]; in the assay on MCF7; with KB; with HepG2) was above 269 nM throughout.
In the case of `CCOC(=O)/C(C)=C/[C@@H](NC(=O)[C@@H](NC(=O)/C(=C/c1ccc(Br)cc1)NC(C)=O)C(C)(C)C)C(C)C`, the 50% inhibitory concentration (IC50) (in assay [1]; in the assay on MCF7; with KB; in the assay on HepG2) was above 269 nM each time.
`CCOC(=O)/C(C)=C/[C@@H](NC(=O)[C@@H](NC(=O)/C(=C/c1cccc(Br)c1)NC(C)=O)C(C)(C)C)C(C)C`: the IC50 (in assay [1]; with MCF7; in the assay with KB; with HepG2) was above 269 nM in each case.
On to `CC(=O)N/C(=C\c1ccc2ccccc2c1)C(=O)N[C@H](C(=O)N[C@H](/C=C(\C)C(=O)O)C(C)C)C(C)(C)C`, for which the concentration for half-maximal inhibition (IC50) in assay [1] was above 269 nM; in the assay with MCF7, above 269 nM; in the assay with KB, 63 nM; with HepG2 it was 33.4 nM.
Consider `CC(=O)N/C(=C\c1ccco1)C(=O)N[C@H](C(=O)N[C@H](/C=C(\C)C(=O)O)C(C)C)C(C)(C)C`, for which the IC50 in assay [1] is above 269 nM; in the assay on MCF7, above 269 nM; in the assay with KB, 8.2 nM; in the assay on HepG2 it was 17.8 nM.
As to `CC(=O)N/C(=C\c1ccoc1)C(=O)N[C@H](C(=O)N[C@H](/C=C(\C)C(=O)O)C(C)C)C(C)(C)C`, the IC50 in assay [1] is above 269 nM; with MCF7 it was above 269 nM; with KB, 155 nM; in the assay with HepG2, above 269 nM.
For `CC(=O)N/C(=C\c1ccsc1)C(=O)N[C@H](C(=O)N[C@H](/C=C(\C)C(=O)O)C(C)C)C(C)(C)C`, the IC50 (in assay [1]; with MCF7; with KB; in the assay on HepG2) was above 269 nM in each case.
Consider `COc1cccc(/C=C(\NC(C)=O)C(=O)N[C@H](C(=O)N[C@H](/C=C(\C)C(=O)O)C(C)C)C(C)(C)C)c1`, for which the IC50 (in assay [1]; in the assay with MCF7; in the assay with KB; in the assay on HepG2) was above 269 nM throughout.
As to `COc1ccc(/C=C(\NC(C)=O)C(=O)N[C@H](C(=O)N[C@H](/C=C(\C)C(=O)O)C(C)C)C(C)(C)C)cc1`, the IC50 (in assay [1]; with MCF7; in the assay on KB; in the assay on HepG2) was above 269 nM throughout.
As to `CC(=O)N/C(=C\c1ccc(Br)cc1)C(=O)N[C@H](C(=O)N[C@H](/C=C(\C)C(=O)O)C(C)C)C(C)(C)C`, the IC50 (in assay [1]; in the assay with MCF7; with KB; in the assay on HepG2) was above 269 nM throughout.
Consider `CC(=O)N/C(=C\c1cccc(Br)c1)C(=O)N[C@H](C(=O)N[C@H](/C=C(\C)C(=O)O)C(C)C)C(C)(C)C`, for which the IC50 (in assay [1]; in the assay with MCF7; in the assay on KB; with HepG2) was above 269 nM each time.
With `CCOC(=O)/C(C)=C/[C@H](C(C)C)N(C)C(=O)[C@@H](NC(=O)/C(=C/c1ccc2ccccc2c1)NC(C)=O)C(C)(C)C`, the IC50 in assay [1] was above 269 nM; in the assay on MCF7 it was 67.9 nM; in the assay with KB, 23 nM; with HepG2, 23.1 nM.
Regarding `CCOC(=O)/C(C)=C/[C@H](C(C)C)N(C)C(=O)[C@@H](NC(=O)/C(=C/c1ccco1)NC(C)=O)C(C)(C)C`, the half-maximal inhibitory concentration (IC50) in assay [1] was found to be 231 nM; in the assay on MCF7, 178 nM; in the assay with KB, 3.5 nM; in the assay on HepG2 it was 31.4 nM.
On the same counts, the results for `CCOC(=O)/C(C)=C/[C@H](C(C)C)N(C)C(=O)[C@@H](NC(=O)/C(=C/c1ccoc1)NC(C)=O)C(C)(C)C` are 158 nM, 113 nM, 24.1 nM and 16.3 nM.
For the compound `CCOC(=O)/C(C)=C/[C@H](C(C)C)N(C)C(=O)[C@@H](NC(=O)/C(=C/c1ccsc1)NC(C)=O)C(C)(C)C`, the IC50 in assay [1] was above 269 nM; with MCF7 it was above 269 nM; in the assay on KB, 202 nM; in the assay with HepG2, 15 nM.
As for `CCOC(=O)/C(C)=C/[C@H](C(C)C)N(C)C(=O)[C@@H](NC(=O)/C(=C/c1cccc(OC)c1)NC(C)=O)C(C)(C)C`, the IC50 (in assay [1]; in the assay with MCF7; in the assay with KB; with HepG2) was above 269 nM in each case.
For the compound `CCOC(=O)/C(C)=C/[C@H](C(C)C)N(C)C(=O)[C@@H](NC(=O)/C(=C/c1ccc(OC)cc1)NC(C)=O)C(C)(C)C`, the IC50 in assay [1] was above 269 nM; in the assay on MCF7, 215 nM; in the assay with KB it was 3.7 nM; in the assay with HepG2, 3.7 nM.
Regarding `CCOC(=O)/C(C)=C/[C@H](C(C)C)N(C)C(=O)[C@@H](NC(=O)/C(=C/c1ccc(Br)cc1)NC(C)=O)C(C)(C)C`, the IC50 was above 269 nM in assay [1], above 269 nM in the assay on MCF7, 49 nM in the assay with KB and above 269 nM with HepG2.
On to `CC(=O)N/C(=C\c1ccc2ccccc2c1)C(=O)N[C@H](C(=O)N(C)[C@H](/C=C(\C)C(=O)O)C(C)C)C(C)(C)C`, for which the IC50 in assay [1] is above 269 nM; with MCF7, above 269 nM; with KB, 69.7 nM; in the assay with HepG2, 13 nM.
Take `CC(=O)N/C(=C\c1ccco1)C(=O)N[C@H](C(=O)N(C)[C@H](/C=C(\C)C(=O)O)C(C)C)C(C)(C)C`: the 50% inhibitory concentration (IC50) was above 269 nM in assay [1], above 269 nM with MCF7, 188 nM with KB and above 269 nM with HepG2.
As to `CC(=O)N/C(=C\c1ccoc1)C(=O)N[C@H](C(=O)N(C)[C@H](/C=C(\C)C(=O)O)C(C)C)C(C)(C)C`, the IC50 in assay [1] is above 269 nM; in the assay with MCF7 it was above 269 nM; with KB, above 269 nM; in the assay with HepG2, 149 nM.
For the compound `CC(=O)N/C(=C\c1ccsc1)C(=O)N[C@H](C(=O)N(C)[C@H](/C=C(\C)C(=O)O)C(C)C)C(C)(C)C`, the IC50 in assay [1] was above 269 nM; in the assay with MCF7, above 269 nM; in the assay with KB, 234 nM; in the assay with HepG2 it was 63.2 nM.
For the compound `COc1cccc(/C=C(\NC(C)=O)C(=O)N[C@H](C(=O)N(C)[C@H](/C=C(\C)C(=O)O)C(C)C)C(C)(C)C)c1`, the IC50 (in assay [1]; with MCF7; in the assay with KB; in the assay with HepG2) was above 269 nM each time.
Turning to `COc1ccc(/C=C(\NC(C)=O)C(=O)N[C@H](C(=O)N(C)[C@H](/C=C(\C)C(=O)O)C(C)C)C(C)(C)C)cc1`, the IC50 in assay [1] is above 269 nM; in the assay with MCF7, above 269 nM; in the assay with KB, 15.8 nM; in the assay with HepG2, 63.8 nM.
`CC(=O)N/C(=C\c1ccc(Br)cc1)C(=O)N[C@H](C(=O)N(C)[C@H](/C=C(\C)C(=O)O)C(C)C)C(C)(C)C`: the IC50 (in assay [1]; with MCF7; in the assay with KB; with HepG2) was above 269 nM throughout.
On to `Cc1c2ccncc2c(C)c2c1[nH]c1ccccc12` [ELLIPTECINE], for which the IC50 in assay [1] was found to be 1.82 nM; with MCF7 it was 2.15 nM; in the assay with KB, 1.26 nM; in the assay on HepG2, 1.26 nM.
As for `CC(=O)O[C@H]1C(=O)[C@@]2(C)[C@H]([C@H](OC(=O)c3ccccc3)[C@]3(O)C[C@H](OC(=O)[C@H](O)[C@@H](NC(=O)c4ccccc4)c4ccccc4)C(C)=C1C3(C)C)[C@]1(OC(C)=O)CO[C@@H]1C[C@@H]2O` [PACLITAXEL], the IC50 in the assay on KB was determined as 3.9 nM; with HepG2, 0.19 nM.
